Where a name gives a salt, the structure may show the parent alone.
What follows are molecules tested on Guinea Pig Eosinophils (assay: Suppression of LTB4-induced chemotactic reaction of guinea pig eosinophils). Settings: Cavia porcellus, Eosinophil, test drug 1 × 10^-5 M, LTB4 10^-8 M, read-out: Suppression Rate (%).
Assay type: cell-based, guinea pigs
Experimental: To male Hartley guinea pigs, 2 ml of equine serum (Bio-Whittaker, Inc.) was intraperitoneally administered once weekly for 8 consecutive weeks. At 48 hours after final administration, 75 ml of physiological saline was intraperitoneally injected, after which the recovered solution was centrifuged at 400 × g for 5 minutes. The resulting sediment was suspended in 5 ml of Percoll solution (density d=1.07) and layered on top of the discontinuous density layer of Percoll solution (density d=1.112, 5 ml; d=1.095, 10 ml; d=1.090, 10 ml; d=1.085, 5 ml), followed by centrifugation at 1,000 × g for 25 minutes (20°C). The cell layer formed at the interface between density d= 1.112 and density d=1.095 was collected. Erythrocytes present in the collected cell sediment were removed by hypotonic treatment (suspended in water for […]).
The cell sediment was washed 3 times with Hanks' solution containing 10 mM Hepes (Dojin Kagaku) (Hanks-Hepes) and suspended in a Hanks-Hepes solution containing 2% human serum albumin (Wako Pure Chemical Industry or Sigma) (Hanks-Hepes-HSA) to a concentration of 5.56×10^6 cells/ml. Eosinophil purity was 90%, viability was over 98%.
To a 24-well culture dish, which serves as a lower chamber, 600 µl of Hanks-Hepes-HSA solution containing LTB4 (final concentration 10^-8 M, Cascade Biochemical Ltd.), was transferred, followed by incubation at 37°C for 30 minutes in a carbon dioxide incubator. Separately, 200 µl of eosinophil suspension (5×10^6 cells/ml), previously incubated at 37°C for 15 minutes, was added to Chemotaxicell (polycarbonate membrane, pore size 3 µm, thickness 10 µm), which serves as an upper chamber, after the upper chamber was attached to the 24-well culture dish. After 2 hours of reaction in the carbon dioxide incubator, the Chemotaxicell was removed; 60 µl of 2% (w/v) EDTA solution in physiological saline was added to the liquid in the lower chamber. After ice-cooling, the cells migrating into the inner solution of the lower chamber were counted using a blood cell counter [Coulter Counter (trade name)]. The test drug, dissolved in N,N-dimethylformamide (DMF), was added to both the upper and lower chambers to a final concentration of 10^-5 M. Equation 2 Chemotactic reaction suppression rate = [1-(number of migrating cells in the presence of drug/number of migrating cells in the absence of drug)] × 100 [formula] suppression rates of LTB4 -induced chemotactic reaction by test drug (1 × 10^-5 M concentration) were calculated.

Row | Compound | inhibition at 10 µM [%]
1 | c1ccc(C(OC2CCN(CCCOc3ccc4ncnn4n3)CC2)c2ccccc2)cc1 [Reference Example B2, 6-[3-[4-(diphenylmethoxy)piperidino]propoxy]-[1,2,4]triazolo[1,5-b]pyridazine fumarate] | 54
2 | CC(C)c1cc2ncnn2nc1SCCOCCN1CCN(C(c2ccccc2)c2ccccc2)CC1 [Reference Example B59, 6-[2-[2-[4-(diphenylmethyl)-1-piperazinyl]-ethoxy]ethylthio]-7-isopropyl[1,2,4]triazolo[1,5-b]pyridazine dihydrochloride] | 54
3 | c1ccc(C(OC2CCN(CCCNc3ccc4ncnn4n3)CC2)c2ccccc2)cc1 [Reference Example B6, 6-[3-[4-(diphenylmethoxy)piperidino]-propylamino][1,2,4]triazolo[1,5-b]pyridazine] | 64
4 | Cc1cc2ncnn2nc1OCCCCCCN1CCN(C(c2ccccc2)c2ccccc2)CC1 [Reference Example B51, 6-[6-[4-(diphenylmethyl)-1-piperazinyl]hexyloxy]-7-methyl[1,2,4]triazolo[1,5-b]pyridazine dihydrochloride] | 80
5 | Cc1cc2ncnn2nc1OCCOCCN1CCN(C(c2ccccc2)c2ccccc2)CC1 [Reference Example B47, 6-[2-[2-[4-(diphenylmethyl)-1-piperazinyl]-ethoxy]ethoxy]-7-methyl[1,2,4]triazolo[1,5-b]pyridazine] | 54
6 | COC(=O)c1nc2ccc(NCCCN3CCC(OC(c4ccccc4)c4ccccc4)CC3)nn2n1 [Reference Example B36, methyl 6-[3-[4-(diphenylmethoxy)piperidino]-propylamino][1,2,4]triazolo[1,5-b]pyridazine-2-carboxylate] | 64
7 | c1ccc(C(OC2CCN(CCCCCCNc3ccc4ncnn4n3)CC2)c2ccccc2)cc1 [Reference Example B35, 6-[6-[4-(diphenylmethoxy)piperidino]-hexylamino][1,2,4]triazolo[1,5-b]pyridazine] | 52
8 | CC(C)c1cc2ncnn2nc1OCCOCCN1CCN(C(c2ccccc2)c2ccccc2)CC1 [Reference Example B61, 6-[2-[2-[4-(diphenylmethyl)-1-piperazinyl]-ethoxy]ethoxy]-7-isopropyl[1,2,4]triazolo[1,5-b]pyridazine] | 50
9 | CC(C)(C)c1nc2ccc(NCCCN3CCC(OC(c4ccccc4)c4ccccc4)CC3)nn2n1 [Reference Example B34, 2-tert-butyl-6-[3-[4-(diphenylmethoxy)-piperidino]propylamino][1,2,4]triazolo[1,5-b]pyridazine fumarate] | 50
10 | CC(C)(C)c1cc2ncnn2nc1OCCOCCN1CCN(C(c2ccccc2)c2ccccc2)CC1 [Reference Example B62, 7-tert-butyl-6-[2-[2-[4-(diphenylmethyl)-1-piperazinyl]ethoxy]ethoxy][1,2,4]triazolo[1,5-b]pyridazine dihydrochloride] | 52
11 | Cc1nc2ccc(NCCCN3CCC(OC(c4ccccc4)c4ccccc4)CC3)nn2n1 [Reference Example B20, 6-[3-[4-(diphenylmethoxy)piperidino]-propylamino]-2-methyl[1,2,4]triazolo[1,5-b]pyridazine] | 61

The molecules below were run on Male Hartley guinea pigs (assay: Effect on histamine-induced increases in microvascular permeability in skin in guinea pigs). Settings: Cavia porcellus; 3 mg/kg oral administration 1 hour before histamine; guinea pig skin.
Assay type: in vivo
Experimental: Male Hartley guinea pigs weighing about 500 g were used. After the dorsal hair was shaved under ether anesthesia, 1 ml of a 2.5% pontamine sky blue solution was injected intravenously, and then 0.1 ml of histamine at 3 µg/ml was injected intradermally into 2 sites (left and right) in the back. Thirty minutes after the injection of histamine, animals were fainted by knocking in the head, decapitated and killed by bleeding, after which the skin of the back was removed. The long and short diameters (mm) of each blue spot were measured and multiplied; the mean product was taken as the vascular permeability index. Test compounds were suspended in a 5% gum arabic solution and orally administered in a volume of 0.2 ml/100 g body weight at 1 hour before histamine administration. Animals in the control group received the same volume of a 5% gum arabic solution. Equation 1 Inhibition (%) of histamine-induced increases in microvascular permeability in skin = 100 × (1-vascular permeability index in the presence of drug/vascular permeability index in control group) [formula]

Row | Compound | inhibition in vivo at 3 mg/kg [%]
12 | CC(C)(C(=O)O)c1cn2nc(OCCCN3CCC(OC(c4ccccc4)c4ccccc4)CC3)ccc2n1 [Reference Example B45, 2-[6-[3-[4-(diphenylmethoxy)piperidino]-propoxy]imidazo[1,2-b]pyridazin-2-yl]-2-methylpropionic acid] | 91
13 | c1ccc(C(OC2CCN(CCCNc3ccc4ncnn4n3)CC2)c2ccccc2)cc1 [Reference Example B6, 6-[3-[4-(diphenylmethoxy)piperidino]-propylamino][1,2,4]triazolo[1,5-b]pyridazine] | 91
14 | c1ccc(C(c2ccccc2)N2CCN(CCCCCCNc3ccc4ncnn4n3)CC2)cc1 [Reference Example B37, 6-[6-[4-(diphenylmethyl)-1-piperazinyl]-hexylamino][1,2,4]triazolo[1,5-b]pyridazine] | 92
15 | O=C(CCN1CCC(OC(c2ccccc2)c2ccccc2)CC1)Nc1ccc2ncnn2n1 [Reference Example B18, 3-[4-(diphenylmethoxy)piperidino]-N-([1,2,4]triazolo[1,5-b]pyridazin-6-yl)propionamide] | 91
16 | c1ccc(C(OC2CCN(CCCCNc3ccc4ncnn4n3)CC2)c2ccccc2)cc1 [Reference Example B12, 6-[4-[4-(diphenylmethoxy)piperidino]-butylamino][1,2,4]triazolo[1,5-b]pyridazine] | 91
17 | Cc1nc2ccc(OCCCN3CCC(OC(c4ccccc4)c4ccccc4)CC3)nn2n1 [Reference Example B21, 6-[3-[4-(diphenylmethoxy)piperidino]propoxy]-2-methyl[1,2,4]triazolo[1,5-b]pyridazine] | 91
18 | COc1cn2nc(OCCCN3CCC(OC(c4ccccc4)c4ccccc4)CC3)ccc2n1 [Reference Example B41, 6-[3-[4-(diphenylmethoxy)piperidino]propoxy]-2-methoxyimidazo[1,2-b]pyridazine] | 92
19 | Cc1nc2ccc(NCCCN3CCC(OC(c4ccccc4)c4ccccc4)CC3)nn2n1 [Reference Example B20, 6-[3-[4-(diphenylmethoxy)piperidino]-propylamino]-2-methyl[1,2,4]triazolo[1,5-b]pyridazine] | 92

— patent publication EP1243271A1, “NASAL DROPS CONTAINING FUSED PYRIDAZINE DERIVATIVES” (Takeda Chemical Industries, Ltd., priority 1999, dated 2001)
